# Experimental data taken from US20030139296A1 (priority 2000, published 2003).
# Structures can show the parent of a compound that is named as a salt. Where two headings read alike, the source gives them in different places.
# Assays:
# [1] = tested on: PAL, APX and HMGR defense genes; settings: tomato stem soaked in aqueous solution at 50 u uM; FIG. 4
# [2] = tested on: PR1, PBZ1 and POX22.3 defense genes
# [3] = tested on: PR1, PBZ1 and POX22.3 defense genes; settings: FIG. 1
# [4] = tested on: PR1, PBZ1 and POX22.3 defense genes; settings: in vivo
# [5] = tested on: Magnaporthe grisea KJ201; format: in vivo; settings: rice blast; for Degree of the disease severity: 1 week after inoculation, scale 0~10; for Control value(%): versus Tween 80-treated rice
# [6] = tested on: Magnaporthe grisea KJ201; settings: rice blast; for Degree of the disease severity: 28° C., 1 day, inoculated at fourth-leaf stage, scale 0~10; for Control value(%): versus distilled water-treated rice, HCl
# [7] = tested on: Xanthomonas oryzae pv. oryzae KX021; settings: bacterial leaf blight in rice; for Degree of the disease severity: distance from inoculated points to symptoms; for Control value(%): versus Tween 80-treated rice, HCl
# [8] = tested on: defense genes in plants; settings: compared among vitamin B1, vitamin B6 and vitamin C
# [9] = 20 mM + Tween 80 (250 ppm) spray
# [10] = 50 mM + Tween 80 (250 ppm) spray
smiles,measurement,setting,value
"Cc1ncc(C[n+]2csc(CCO)c2C)c(N)n1 [Vitamin B1 HCl, thiamine HCl]",Time by which all the defense genes were expressed,[1],≤ 1 h
same,Time after inoculation at which expression of all three defense genes was detected,[2]; in vivo,24 h
same,Time after treatment at which expression of defense genes was detected,[2]; in vivo,24 h
same,Expression of defense genes compared to groups A and B,"[2]; rice treated with 50 mM and then inoculated with leaf blight bacteria (group C), FIG. 3",considerably increased
same,Expression of defense genes compared to groups A and B,[3]; rice treated with 50 mM and then inoculated with rice blast fungus (group C),considerably increased
same,Time at which expression of defense genes was detected,[3]; rice treated with 50 mM only (group B),24 h
same,Time after inoculation at which expression of all three defense genes was detected,"[3]; rice treated with 50 mM, inoculated with rice blast fungus 24 hours later (group C)",24 h
same,Time after treatment at which all defense genes tested were induced to express,[4],4 h
same,Degree of the disease severity,"[5]; 5 mM + Tween 80 (250 ppm) spray, inoculated 4 hours after treatment",6.5 ± 0.6
same,Control value(%),"[5]; 5 mM + Tween 80 (250 ppm) spray, HCl",21.2 ± 7.2%
same,Control value(%),"[5]; 5 mM + Tween 80 (250 ppm) spray, listed as vitamin B1 hydrochloride, HCl",not more than 30%
same,Degree of the disease severity,[5]; 10 mM + Tween 80 (250 ppm) spray,5.8 ± 1.5
same,Control value(%),"[5]; 10 mM + Tween 80 (250 ppm) spray, HCl",30.3 ± 18.2%
same,Control value(%),"[5]; 10 mM + Tween 80 (250 ppm) spray, listed as vitamin B1 hydrochloride, HCl",not more than 30%
same,Degree of the disease severity,[5]; [9],2.3 ± 1.4
same,Control value(%),[5]; [9],72.7 ± 17.0%
same,Degree of the disease severity,[5]; [10],2.8 ± 1.5
same,Control value(%),[5]; [10],66.7 ± 18.2%
same,Degree of the disease severity,[5]; 100 mM + Tween 80 (250 ppm) spray,1.1 ± 0.8
same,Control value(%),"[5]; 100 mM + Tween 80 (250 ppm) spray, HCl",87.3 ± 9.7%
same,Control value(%),"[5]; 100 mM + Tween 80 (250 ppm) spray, listed as vitamin B1 hydrochloride, HCl",about 87%
same,Degree of the disease severity,[6]; seeds soaked at 20 mM,5.4 ± 3.2
same,Control value(%),[6]; seeds soaked at 20 mM,44.4 ± 32.8%
same,Control value(%),"[6]; seeds soaked at 20 mM, listed as vitamin B1 hydrochloride",44%
same,Degree of the disease severity,[6]; seeds soaked at 50 mM,2.3 ± 1.9
same,Control value(%),[6]; seeds soaked at 50 mM,76.8 ± 19.5%
same,Control value(%),"[6]; seeds soaked at 50 mM, listed as vitamin B1 hydrochloride",77%
same,Degree of the disease severity,"[7]; 5 mM + Tween 80 (250 ppm) spray, 1 week after inoculation",8.7 ± 0.6
same,Control value(%),[7]; 5 mM + Tween 80 (250 ppm),10.3 ± 6.2%
same,Control value(%),"[7]; 5 mM + Tween 80 (250 ppm), listed as vitamin B1 hydrochloride",about 30%
same,Degree of the disease severity,"[7]; 10 mM + Tween 80 (250 ppm) spray, 1 week",4.2 ± 1.4
same,Control value(%),[7]; 10 mM + Tween 80 (250 ppm),56.3 ± 14.4%
same,Control value(%),"[7]; 10 mM + Tween 80 (250 ppm), listed as vitamin B1 hydrochloride",not less than 56%
same,Control value(%),[7]; 20 mM + Tween 80 (250 ppm),68.3 ± 25.9%
same,Control value(%),"[7]; 20 mM + Tween 80 (250 ppm), listed as vitamin B1 hydrochloride",≥ 68%
same,Degree of the disease severity,"[7]; 50 mM + Tween 80 (250 ppm) spray, 1 week",0.2 ± 0.3
same,Control value(%),[7]; 50 mM + Tween 80 (250 ppm),97.6 ± 3.1%
same,Control value(%),"[7]; 50 mM + Tween 80 (250 ppm), listed as vitamin B1 hydrochloride",≥ 97%
same,Degree of the disease severity,"[7]; 100 mM + Tween 80 (250 ppm) spray, 1 week",0.3 ± 0.1
same,Control value(%),[7]; 100 mM + Tween 80 (250 ppm),97.2 ± 1.0%
same,Control value(%),"[7]; 100 mM + Tween 80 (250 ppm), listed as vitamin B1 hydrochloride",≥ 97%
Cc1ncc(C[n+]2csc(CCO)c2C)c(N)n1 [vitamin B1],Effectiveness for inducing the expression of defense genes in plants,[8],the most effective
